Results as given in publication PMC8512870, “Anti-Fungal Hevein-like Peptides Biosynthesized from Quinoa Cleavable Hololectins” (Molecules, 2021).
Where a SMILES comes first, the peptide text is derived from it. Bridges are numbered along the chain shown (N, C = ends).

Assays:
[1] = test system: Alternaria alternata (CICC 2465); assay: Microbroth dilution anti-fungal assay; type: cell-based; details: spores 1 × 10^5 cells/mL in half-strength potato dextrose broth, 25 °C, 24 h, crystal violet, absorbance 570 nm, listed as chenotide cQ2, read-out: IC50 against Alternaria alternata
Method: (§1) The half-maximal inhibitory concentration levels (IC50) of peptides were determined by a microbroth dilution assay. Fungal spores were harvested from a 4-day-old actively growing fungal plate and suspended in half-strength potato dextrose broth. Spore suspensions (1 × 10^5 cells/mL) were mixed with peptides at varying concentrations in 96-well microplates and incubated at 25 °C for 24 h. The cells were then fixed with 100% methanol for 15 min and stained for 45 min with crystal violet dye. Excess dye was removed with MilliQ water. Elution was performed using 1:1 (v/v) ethanol/0.1 N HCl. The absorbance was measured at 570 nm.

[2] = test system: Curvularia lunata (CICC 40301); assay: Microbroth dilution anti-fungal assay; type: cell-based; details: spores 1 × 10^5 cells/mL in half-strength potato dextrose broth, 25 °C, 24 h, crystal violet, absorbance 570 nm, listed as chenotide cQ2, read-out: IC50 against Curvularia lunata
Method: as §1

[3] = test system: Fusarium oxysporum (CICC 2532); assay: Microbroth dilution anti-fungal assay; type: cell-based; details: spores 1 × 10^5 cells/mL in half-strength potato dextrose broth, 25 °C, 24 h, crystal violet, absorbance 570 nm, listed as chenotide cQ2, read-out: IC50 against Fusarium oxysporum
Method: as §1

[4] = test system: Rhizoctonia solani (CICC 40259); assay: Microbroth dilution anti-fungal assay; type: cell-based; details: spores 1 × 10^5 cells/mL in half-strength potato dextrose broth, 25 °C, 24 h, crystal violet, absorbance 570 nm, listed as chenotide cQ2, read-out: IC50 against Rhizoctonia solani
Method: as §1

[5] = test system: pepsin; assay: Proteolytic stability, pepsin; type: in vitro ADME; details: recommended buffer, RP-HPLC peak area and MALDI-TOF MS, n = 3
Method: (§2) Assessments of thermal, acidic and proteolytic stability were performed as previously described. Purified chenotide cQ2 was incubated at the stated conditions and recommended buffer solution. At each time interval, samples were aliquoted in triplicate and RP-UPLC was performed. The area under the peak was used to determine the amount of chenotide present before and after treatment.

[6] = test system: aminopeptidase I; assay: Proteolytic stability, aminopeptidase I; type: in vitro ADME; details: recommended buffer, RP-HPLC peak area and MALDI-TOF MS, n = 3
Method: as §2

[7] = Stability in horse serum; type: in vitro ADME; details: RP-HPLC peak area and MALDI-TOF MS, n = 3
Method: as §2

[8] = Stability in human serum; type: in vitro ADME; details: RP-HPLC peak area and MALDI-TOF MS, n = 3
Method: as §2

CC(C)C[C@@H]1NC(=O)CNC(=O)CNC(=O)[C@@H]2CCCN2C(=O)[C@@H]2CSSC[C@@H]3NC(=O)[C@H](Cc4ccccc4)NC(=O)CNC(=O)[C@H](Cc4ccccc4)NC(=O)[C@H](CCCCN)NC(=O)[C@H](CO)NC(=O)[C@H](CSSC[C@H](NC(=O)[C@H](CCC(=O)O)NC(=O)CNC(=O)[C@H](C)N)C(=O)N[C@@H](C(C)C)C(=O)N[C@@H](CCCNC(=N)N)C(=O)NCC(=O)N[C@@H](CCCNC(=N)N)C(=O)N2)NC(=O)[C@H](CSSC[C@@H](C(=O)NCC(=O)NCC(=O)O)NC(=O)[C@H](Cc2ccc(O)cc2)NC(=O)[C@H](C)NC(=O)[C@@H]2CCCN2C(=O)CNC(=O)[C@H](CO)NC(=O)CNC3=O)NC1=O [cQ2] (H-AGECVRGRCPGGLCCSKFGFCGSGPAYCGG-OH; disulfide 4-15, 9-21, 14-28)
IC50 [1]: ~9 µM | IC50 [2]: ~5 µM | IC50 [3]: ~0.3 µM | IC50 [4]: ~3 µM | Peptide retained after pepsin treatment [5]: > 80% | Peptide retained after aminopeptidase I treatment [6]: > 80% | Peptide retained after horse serum treatment [7]: > 80% | Peptide retained after human serum treatment [8]: > 80%
